Experimental data reported in US20230165836A1, “ALPHA-2 ADRENERGIC RECEPTOR AGONISTS FOR THE TREATMENT OF CANCER” (UNIVERSITÉ CATHOLIQUE DE LOUVAIN, priority 2020, published 2023).
Entries after “also recorded” stand apart in the source; their conditions may differ.

Test system: immune-resistant autochthonous melanoma tumors (TiRP)
Experiment: TiRP melanoma with adoptive cell transfer (ACT) of P1A-specific CD8+T cells
Format: in vivo, TiRP mice
Settings: 5 mg/kg
Text: TiRP mice have been created by crossing Ink4a/Are^flox/flox mice with mice carrying a transgenic construct controlled by the tyrosinase promoter and driving the expression of H-Ras ^12V and Trapl a which encodes a MAGE-type tumor antigen P1A; the promoter is separated from the coding region by a stop cassette made of a floxed self-deleting CreER (Huijbers et al., 2006, Cancer Res 66, 3278-3286). Those mice were backcrossed to a B10.D2 background and bred to homozygosity. TCRP1A mice heterozygous for the H-2Ld/P1A35-43-specific TCR transgene were kept on the B10.D2;Rag1^−/− background (Shanker et al., 2004, J Immunol 172, 5069-5077). BALB/c mice were used in tumor transplantation experiments. TiRP-derived T429.11 transplanted melanoma model: T429.11 clone was derived from an induced Amela TiRP tumor referred to as T429. It was cloned from the T429 induced melanoma primary tumor line. Two million of T429.11 tumor cells were injected subcutaneously into recipient mice for tumor establishment (Zhu et al., 2017, Nat Commun. 10; 8(1):1404). Adra2a tm1Bkk mice (Strain Name: B6.129-Adra2a tm1Bkk /J, # 004367) were obtained from Jackson Laboratory (Bar Harbor, Me., USA).
A fresh solution of 40H-Tamoxifen was prepared by dissolving 40H-Tamoxifen (Imaginechem®) in 100% ethanol and mineral oil (ratio 1:9) followed by 30 min sonication, and injected subcutaneously (2 mg/200 uL per mouse) in the neck area of gender-matched 7 weeks old TiRP mice. Tumor appearance was monitored daily and tumors were measured three times/week. Tumor volume (in mm^3) was calculated by the following formula: Volume=width^2×length/2.
For the adoptive cell transfer (ACT), P1A-specific (TCRP1A) CD8+T cells were isolated from spleens and lymph nodes of TCRP1A mice as described hereinabove, and stimulated in vitro by co-culture with irradiated (10,000 rads) L1210.P1A.B7-1 cells (Gajewski et al., 1995, J Immunol 154, 5637-5648) at 1:2 ratio (0.5×10^5 CD8+T cells and 10^5 L1210.P1A.B7-1 cells per well in 48-well plates) in IMDM (GIBCO®) containing 10% fetal bovine serum supplemented with L-arginine (0.55 mM, Merck®), L-asparagine (0.24 mM, Merck®), glutamine (1.5 mM, Merck®), beta-mercaptoethanol (50 μM, Sigma Aldrich®), 50 U mL^−1 penicillin and […] mL^−1 streptomycin (Life Technologies®). Four days later, TCRP1A CD8+T cells were purified on a Lymphoprep gradient (StemCell®) and 10^7 living cells were injected intravenously in 200 μL PBS in TiRP-tumor bearing mice on the day of randomization.
TiRP-tumor bearing mice received adoptive cell transfer (ACT) of 10^7 P1A-specific activated CD8+T cells and daily injections of vehicle control, clonidine (5 mg/kg, i.p.), or clonidine (5 mg/kg, i.p.) combined with phentolamine (5 mg/kg, i.p.), when the tumor size was around 500 mm^3, until the day of sacrifice. Tumor size was monitored every 2 days. Mice were sacrificed when the tumor in control group reached around 2,000 mm^3.
TiRP-tumor bearing mice received adoptive cell transfer (ACT) of 10^7 of P1A-specific activated CD8+T cells. Daily injections of 5 mg/kg i.p. of romifidine or clonidine were thus administered from the day of the ACT, when the tumor size was around 500 mm^3, until the day of sacrifice. As shown on FIGS. 5A-B, following romifidine or clonidine administration, tumor infiltration of CD8+T cells was increased. […]

Clc1cccc(Cl)c1N=C1NCCN1 [clonidine]
tumor infiltration of CD8+T cells (%CD8+T cells among total CD45+T cells) (TiRP mice with ACT, 5 mg/kg i.p. daily from day of ACT, tumor size around 500 mm^3): increase of tumor infiltration of CD8+T cells; also recorded: increased | tumor growth, combined with ACT (TiRP mice, ACT of 10^7 P1A-specific CD8+T cells, 5 mg/kg i.p. daily): strongly sensitized immune-resistant autochthonous melanoma tumors (TiRP) to adoptive cell transfer (ACT); also recorded: efficiently control the growth; also recorded: inhibited the tumor growth
